The series is described as follows: Thermal decomposition of the azo compound (10 hour half-life temperature, decomposition rate constant). It counts as physicochemical.

Regarding “2,2′-azobis[2-methyl-1-(1-pyrrolidinyl)iminopropane] hydrochloride [Example 1]”, the “10 hour half-life temperature” value came to 66.5 °C. Moreover, the “Decomposition rate constant k60° C.” value (60° C.) is 7.94e-06 s⁻¹. The “Decomposition rate constant k70° C.” value (70° C.) was found to be 3.03e-05 s⁻¹. Where the note is “decomposition kinetics”, this substance came in with an Ea of 30.39 kcal/mol and a lnA of 34.19.

Source of the values: US6403774B1, “Azoamidine compound” (Wako Pure Chemical Industries, Ltd., priority 2000, dated 2002).
